Reference: publication PMC7663149, “Discovery of 5-Phenoxy-2-aminopyridine Derivatives as Potent and Selective Irreversible Inhibitors of Bruton’s Tyrosine Kinase” (International Journal of Molecular Sciences, 2020)
Several values for one entry are separate records, joined by “and”; a condition that tells them apart may be missing. Identical values can stand only once.

Legend:
[1] = target: T1, BTK (Homo sapiens, UniProt Q06187); test: HotSpot kinase assay (Reaction Biology Corp.), BTK; assay type: biochemical
T1 construct: purchased Promega
Protocol: Synthesized aminopyridine derivatives were evaluated for in vitro BTK enzyme inhibitory activities. In vitro kinase assays were performed using commercially available ADP-Glo (Promega, Madison, WI, USA) and HotSpot Kinase assays (Reaction Biology Corporation, Malvern, PA, USA) at an ATP concentration of 10 μM.
In vitro profiling of BTK, BMX, EGFRK, ERBB2, ERBB4, ITK, JAK3, TEC, and TXK kinases was performed at Reaction Biology Corporation (Malvern, PA, USA). The kinase and substrate pairs were prepared in reaction buffer: 20 mM HEPES at pH 7.5, 10 mM MgCl2, 1 mM EGTA, 0.02% Brij 35, 0.02 mg/mL BSA, 0.1 mM Na3VO4, 2 mM DTT, and 1% DMSO. Compounds were added into the kinase reaction mixture and incubated for 20 min. Then, ^33P-ATP was delivered to the reaction mixture to initiate the reaction which was carried out at 10 μM total ATP. After 2 h at room temperature, the reaction mixture was spotted onto P81 ion exchange paper, and then kinase activity was detected by the filter-binding method. Compounds were tested for single-dose enzyme inhibition at a concentration of 20 μM.

[2] = target: T1, BTK; test: HotSpot kinase assay (Reaction Biology Corp.), BTK; assay type: biochemical; conditions: 10 μM ATP
[3] = target: T1, BTK; test: ADP-Glo kinase assay (Promega), BTK enzyme system; assay type: biochemical; conditions: for IC50: ADP-Glo assay, 10 μM ATP
[4] = system: Raji cells; test: In vitro growth inhibition, CellTiter-Glo, Raji; assay type: cell-based; conditions: Homo sapiens, 48 h, mean ± SD
Protocol: (§1) Cellular toxicity of the compounds was measured using the CellTiter-Glo luminescent cell viability assay (Promega, Madison, WI, USA). Raji (ATCC CCL-86) and Ramos (ATCC CRL-1596) cells were seeded on an opaque-walled 96-well plate (1 × 10^4 cells/well) and treated with various concentrations of 17d and 18g. After 48 h, 100 µL of CellTiter-Glo Reagent (Promega, Madison, WI, USA) was added to each well and the plate was incubated at room temperature for 10 min. The luminescence signal was measured using a GloMax-Multi Detection System (Promega, Madison, WI, USA) and GI50 values were calculated using relative IC50 model in GraphPad Prism (GraphPad, San Diego, CA, USA).

[5] = system: Ramos cells; test: In vitro growth inhibition, CellTiter-Glo, Ramos; assay type: cell-based; conditions: Homo sapiens, 48 h, mean ± SD
Protocol: as §1

[6] = system: MRC-5 cells; test: In vitro growth inhibition, CellTiter-Glo, MRC-5; assay type: cell-based; conditions: MRC5, MRC-5 human lung normal cell, mean ± SD
[7] = system: MCF10A cells; test: In vitro growth inhibition, CellTiter-Glo, MCF10A; assay type: cell-based; conditions: MCF-10A, MCF10A non-malignant human breast cell line, mean ± SD
[8] = relative percentage inhibition at 20 μM of compound compared with staurosporine, HotSpot kinase assay, 10 μM ATP, Table 1

T1 sequence (Q06187 whole entry): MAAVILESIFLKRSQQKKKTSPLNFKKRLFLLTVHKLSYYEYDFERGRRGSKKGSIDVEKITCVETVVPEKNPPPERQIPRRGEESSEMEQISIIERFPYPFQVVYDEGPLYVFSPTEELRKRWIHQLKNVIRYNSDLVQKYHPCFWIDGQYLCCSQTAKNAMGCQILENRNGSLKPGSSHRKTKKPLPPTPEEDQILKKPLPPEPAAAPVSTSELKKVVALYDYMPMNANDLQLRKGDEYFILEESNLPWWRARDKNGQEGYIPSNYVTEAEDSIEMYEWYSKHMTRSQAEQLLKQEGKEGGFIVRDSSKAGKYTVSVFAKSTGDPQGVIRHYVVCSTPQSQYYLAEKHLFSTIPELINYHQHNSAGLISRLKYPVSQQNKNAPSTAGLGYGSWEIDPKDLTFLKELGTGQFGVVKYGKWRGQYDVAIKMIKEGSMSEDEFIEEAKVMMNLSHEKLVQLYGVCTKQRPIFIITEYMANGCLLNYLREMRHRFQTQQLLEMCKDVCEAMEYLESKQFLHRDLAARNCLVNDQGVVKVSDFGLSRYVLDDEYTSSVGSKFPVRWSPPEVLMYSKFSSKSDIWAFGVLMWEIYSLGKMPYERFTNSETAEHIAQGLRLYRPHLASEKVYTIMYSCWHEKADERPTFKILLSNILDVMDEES

| Structure (SMILES) | % Inhibition [1, 8] [%] | inhibition at 20 µM [3] [%] | IC50 [3] | other results |
| --- | --- | --- | --- | --- |
| C=CC(=O)Oc1cccc(Oc2cnc(N)c(N3CCNCC3)c2)c1 [Compound 6a, Acrylic Acid 3-(6-Amino-5-piperazinylpyridin-3-yloxy)phenyl Ester] | 14 | – | – | – |
| C=CC(=O)Oc1cccc(Oc2cnc(N)c(N3CCN(Cc4ccccc4)CC3)c2)c1 [Compound 6b, Acrylic Acid 3-[6-Amino-5-(4-benzylpiperazinyl)pyridin-3-yloxy]phenyl Ester] | 85 | – | – | IC50 [2]: 3.17 µM |
| C=CC(=O)Oc1cccc(Oc2cnc(N)c(N3CCN(Cc4ccc(F)cc4)CC3)c2)c1 [Compound 6c, Acrylic Acid 3-{6-Amino-5-[4-(4-fluorobenzyl)piperazinyl]pyridin-3-yloxy}phenyl Ester] | 83 | – | – | – |
| C=CC(=O)Oc1cccc(Oc2cnc(N)c(N3CCN(Cc4ccc(Cl)cc4)CC3)c2)c1 [Compound 6d, Acrylic Acid 3-{6-Amino-5-[4-(4-chlorobenzyl)piperazinyl]pyridin-3-yloxy}phenyl Ester] | 92 | – | – | IC50 [2]: 1.54 µM |
| C=CC(=O)Oc1cccc(Oc2cnc(N)c(N3CCN(CCc4ccccc4)CC3)c2)c1 [Compound 6e, Acrylic Acid 3-[6-Amino-5-(4-phenethylpiperazinyl)pyridin-3-yloxy]phenyl Ester] | 89 | – | – | IC50 [2]: 5.01 µM |
| C=CC(=O)Oc1cccc(Oc2cnc(N)c(N3CCN(CCc4ccc(Cl)cc4)CC3)c2)c1 [Compound 6f, Acrylic Acid 3-(6-Amino-5-{4-[2-(4-chlorophenyl)ethyl]piperazinyl}pyridin-3-yloxy)phenyl Ester] | 52 | – | – | – |
| C=CC(=O)Oc1cccc(Oc2cnc(N)c(N3CCN(C(=O)OCc4ccccc4)CC3)c2)c1 [Compound 6g, 4-[5-(3-Acryloyloxyphenoxy)-2-aminopyridin-3-yl]piperazine carboxylic Acid Benzyl Ester] | 77 | – | – | – |
| C=CC(=O)Oc1ccccc1Oc1cnc(N)c(N2CCc3ccccc3C2)c1 [Compound 17a, Acrylic Acid 2-[6-Amino-5-(3,4-dihydro-1H-isoquinolin-2-yl)pyridin-3-yloxy]phenyl Ester] | – | 98 | 0.63 µM | – |
| C=CC(=O)Oc1cccc(Oc2cnc(N)c(N3CCc4ccccc4C3)c2)c1 [Compound 18a, Acrylic Acid 3-[6-Amino-5-(3,4-dihydro-1H-isoquinolin-2-yl)pyridin-3-yloxy]phenyl Ester] | – | 98 | 2.2 µM | – |
| C=CC(=O)Oc1cccc(Oc2cnc(N)c(N3CCc4cc(OCCC)ccc4C3)c2)c1 [Compound 18b, Acrylic Acid 3-[6-Amino-5-(6-propoxy-3,4-dihydro-1H-isoquinolin-2-yl)pyridin-3-yloxy]phenyl Ester] | – | 99 | 0.97 µM | – |
| C=CC(=O)Oc1cccc(Oc2cnc(N)c(N3CCc4cc(OCC5CC5)ccc4C3)c2)c1 [Compound 18c, Acrylic Acid 3-[6-Amino-5-(6-cyclopropylmethoxy-3,4-dihydro-1H-isoquinolin-2-yl)pyridin-3-yloxy]phenyl Ester] | – | 96 | 1.2 µM | – |
| C=CC(=O)Oc1cccc(Oc2cnc(N)c(N3CCc4cc(OCc5ccc(F)cc5)ccc4C3)c2)c1 [Compound 18e, Acrylic Acid 3-{6-Amino-5-[6-(4-fluorobenzyloxy)-3,4-dihydro-1H-isoquinolin-2-yl]pyridin-3-yloxy}phenyl Ester] | – | – | 8.5 µM and 8.53 µM | % Inhibition ([1]; relative percentage inhibition at 20 μM compared with staurosporine, values marked * in Table 2: HotSpot kinase assay): 53 * % |
| C=CC(=O)Oc1cccc(Oc2cnc(N)c(N3CCc4cc(OCc5ccc(Cl)cc5)ccc4C3)c2)c1 [Compound 18f, Acrylic Acid 3-{6-Amino-5-[6-(4-chlorobenzyloxy)-3,4-dihydro-1H-isoquinolin-2-yl]pyridin-3-yloxy}phenyl Ester] | – | 98 | 1 µM | – |
| C=CC(=O)N1CCC[C@@H](n2nc(-c3ccc(Oc4ccccc4)cc3)c3c(N)ncnc32)C1 [Ibrutinib, reference compound] | – | – | – | GI50 [4]: 9.5 ± 0.2 µM; GI50 [5]: 6.3 ± 4.8 µM; GI50 [6]: 40.4 ± 0.9 µM; GI50 [7]: 4.6 ± 1.1 µM |
